Experimental data from ChEMBL document CHEMBL4513160, “CO-ADD screening of MMV (CH) - Small Polar Library”.
Values after ≈ are worked out from the molar mass of the structure shown.

Legend:
[1] = system: Pseudomonas aeruginosa; assay: Antibacterial activity against Pseudomonas aeruginosa PAO397 [PAO1 d(mexAB-oprM) d(mexCD-oprJ) d(mexEF-oprN) d(mexJKL) d(mexXY) d(opmH)] (CO-ADD:GN_211); MIC in CAMBH media using NBS plates, by OD(600); assay type: functional; conditions: ASSAY_TEST Inhibition of Bacterial Growth, detection method Absorption (OD600), MEDIA CAMHB, plate type 384well, CORNING #3640, time 18 hr
[2] = system: Acinetobacter baumannii; assay: microbe, parasite or virus in culture; conditions: ATCC 19606, 18 h, ASSAY_TEST Inhibition of Bacterial Growth, detection method Absorption (OD600), MEDIA CAMHB, plate type 384well, NBS, CORNING #3640
Description: Antibacterial activity against Acinetobacter baumannii ATCC 19606 (CO-ADD:GN_034); MIC in CAMBH media using NBS plates, by OD600

[3] = system: Pseudomonas aeruginosa; assay: microbe, parasite or virus in culture; conditions: ATCC 27853, 18 h, ASSAY_TEST Inhibition of Bacterial Growth, detection method Absorption (OD600), MEDIA CAMHB, plate type 384well, NBS, CORNING #3640
Description: Antibacterial activity against Pseudomonas aeruginosa ATCC 27853 (CO-ADD:GN_042); MIC in CAMBH media using NBS plates, by OD(600)

CN1CCCN(c2nc3ccccc3cc2CO)CC1
MIC [1]: > 300 µM
MIC [2]: > 300 µM
MIC [3]: > 300 µM

C[C@@H](N)C(=O)NCc1cc2cc(Cl)ccc2[nH]1
MIC [1]: 300 µM (≈ 75.5 µg/mL)
MIC [2]: > 300 µM
MIC [3]: > 300 µM

CC(CN)N(C)C(=O)Cc1cccc2ccccc12 (configuration not stated)
MIC [2]: > 300 µM
MIC [3]: > 300 µM

O=C(NCc1cccs1)c1cnsn1
MIC [1]: > 300 µM
MIC [2]: > 300 µM
MIC [3]: > 300 µM

NCCNC(=O)c1ccc(-c2ccc(Cl)cc2)s1
MIC [1]: 90 µM (≈ 25.3 µg/mL)
MIC [2]: > 300 µM
MIC [3]: 300 µM (≈ 84.2 µg/mL)

CCOc1cc(Cl)ccc1CN
MIC [1]: > 300 µM
MIC [2]: > 300 µM
MIC [3]: > 300 µM

N#Cc1ncn(CC(=O)c2ccc3c(c2)CCO3)n1
MIC [1]: > 300 µM
MIC [2]: > 300 µM
MIC [3]: > 300 µM

CC(C)(N)CN1CCN(c2cccc(Cl)c2)CC1
MIC [1]: > 300 µM
MIC [2]: > 300 µM
MIC [3]: > 300 µM

COc1ccc(-c2ccnc(CO)c2)c(OC)c1
MIC [1]: > 300 µM
MIC [2]: > 300 µM
MIC [3]: > 300 µM

NCc1cnn(-c2cccc(Cl)c2)c1
MIC [1]: > 300 µM
MIC [2]: > 300 µM
MIC [3]: > 300 µM

CC(C)c1ccoc1C(=O)N(C)c1cc(C#N)ccn1
MIC [1]: > 300 µM
MIC [2]: > 300 µM
MIC [3]: > 300 µM

CCNCCOc1cccc(OCC)c1
MIC [1]: > 300 µM
MIC [2]: > 300 µM
MIC [3]: > 300 µM

CNC(CO)c1cccc(Cl)c1Cl (configuration not stated)
MIC [1]: > 300 µM
MIC [2]: > 300 µM
MIC [3]: > 300 µM

Cc1ccc(C(=O)NCc2ccnc(N(C)C)c2)s1
MIC [1]: > 300 µM
MIC [2]: > 300 µM
MIC [3]: > 300 µM

CCOc1ncc(C(=O)NCC(C)(O)C(C)C)cc1Cl (configuration not stated)
MIC [1]: > 300 µM
MIC [2]: > 300 µM
MIC [3]: > 300 µM

OCC1(O)CCCN(c2ccnc3ccc(Cl)cc23)C1 (configuration not stated)
MIC [1]: > 300 µM
MIC [2]: > 300 µM
MIC [3]: > 300 µM

OCc1ccncc1NCc1coc2ccccc12
MIC [1]: > 300 µM
MIC [2]: > 300 µM
MIC [3]: > 300 µM

O=S1(=O)CCC(CNc2ccnc3ccc(Cl)cc23)C1 (configuration not stated)
MIC [1]: > 300 µM
MIC [2]: > 300 µM
MIC [3]: > 300 µM

COc1cccc(-c2ncc(CN)s2)c1
MIC [1]: > 300 µM
MIC [2]: > 300 µM
MIC [3]: > 300 µM

NS(=O)(=O)NCCCc1ccc(Br)cc1F
MIC [1]: > 300 µM
MIC [2]: > 300 µM
MIC [3]: > 300 µM

NCC(=O)N(Cc1cccs1)Cc1cccs1
MIC [1]: > 300 µM
MIC [2]: > 300 µM
MIC [3]: > 300 µM

COc1ccc(NC(=O)c2ccc(S(N)(=O)=O)o2)cc1
MIC [1]: 200 µM (≈ 59.3 µg/mL)
MIC [2]: > 300 µM
MIC [3]: > 300 µM

CCc1nnc(NC(=O)c2cc(OC)ccn2)s1
MIC [1]: > 300 µM
MIC [2]: > 300 µM
MIC [3]: > 300 µM

CN(Cc1ccc(Cl)cc1)C(=O)C1CCNC1 (configuration not stated)
MIC [1]: > 300 µM
MIC [2]: > 300 µM
MIC [3]: > 300 µM

CC(Nc1ccc(C#N)cn1)c1ccc2c(c1)OCO2 (configuration not stated)
MIC [1]: > 300 µM
MIC [2]: > 300 µM
MIC [3]: > 300 µM

O=C(Nc1ccnc(CO)c1)c1ccc(F)cc1I
MIC [1]: > 300 µM
MIC [2]: > 300 µM
MIC [3]: > 300 µM

NCC1CCOc2ccccc21 (configuration not stated)
MIC [1]: > 300 µM
MIC [2]: > 300 µM
MIC [3]: > 300 µM

NC(=O)C1CCN(c2ccnc3cc(Br)ccc23)C1 (configuration not stated)
MIC [1]: > 300 µM
MIC [2]: > 300 µM
MIC [3]: > 300 µM

CN(CCOc1ccc(Cl)cc1)C(=O)C(C)(C)CN
MIC [1]: > 300 µM
MIC [2]: > 300 µM
MIC [3]: > 300 µM

NCC(=O)N1CCCC(CCc2ccc(F)cc2F)C1 (configuration not stated)
MIC [1]: > 300 µM
MIC [2]: > 300 µM
MIC [3]: > 300 µM

OCCCNc1ccnc2ccc(Cl)cc12
MIC [1]: > 300 µM
MIC [2]: > 300 µM
MIC [3]: > 300 µM

NC1CCN(c2ccccc2F)CC1
MIC [1]: > 300 µM
MIC [2]: > 300 µM
MIC [3]: > 300 µM

O=C1C=CC(=O)N1Cc1ccc(Cl)cc1
MIC [1]: > 300 µM
MIC [2]: > 300 µM
MIC [3]: > 300 µM

O=C(Nc1ccncc1)c1coc(Br)c1
MIC [1]: > 300 µM
MIC [2]: > 300 µM
MIC [3]: > 300 µM

c1cc(CNc2ncnc3[nH]ncc23)c2c(c1)OCO2
MIC [1]: > 300 µM
MIC [2]: > 300 µM
MIC [3]: > 300 µM

Brc1ccc2c(c1)OCCNC2
MIC [1]: > 300 µM
MIC [2]: > 300 µM
MIC [3]: > 300 µM
